From ChEMBL document CHEMBL6083247, “Discovery of sulfone containing metallo-β-lactamase inhibitors with reduced bacterial cell efflux and histamine release issues” (Bioorg Med Chem Lett, 2024)
pIC50: −log10 of the molar value. Each block holds one compound with its values, some of them ahead of it.

Legend:
[1] = Inhibition of Metallo-beta-lactamase IMP-1 (unknown origin); parameters: species or system Bacteria
[2] = Inhibition of Metallo-beta-lactamase VIM-1 (unknown origin); parameters: species or system Bacteria
[3] = Inhibition of Metallo-beta-lactamase VIM-2 (unknown origin); parameters: species or system Bacteria
[4] = system: Escherichia coli; assay: Antibacterial activity against NDM-1 expressing Escherichia coli CLB30016 assessed as inhibition of bacterial growth in presence of IMI by absorbance based assay; type: functional
[5] = system: Serratia marcescens; assay: Antibacterial activity against IMP-1 expressing Serratia marcescens CL5741 assessed as inhibition of bacterial growth in presence of IMI by absorbance based assay; type: functional
[6] = system: Klebsiella pneumoniae; assay: Antibacterial activity against VIM-1 expressing Klebsiella pneumoniae IHMA599644 assessed as inhibition of bacterial growth in presence of IMI by absorbance based assay; type: functional
[7] = system: Pseudomonas aeruginosa; assay: Antibacterial activity against wildtype isogenic efflux/IMP-1 expressing Pseudomonas aeruginosa MB9798 assessed as inhibition of bacterial growth in presence of IMI by absorbance based assay; type: functional
[8] = system: Pseudomonas aeruginosa; assay: Antibacterial activity against mutant isogenic efflux/IMP-1 expressing Pseudomonas aeruginosa MB9799 assessed as inhibition of bacterial growth in presence of IMI by absorbance based assay; type: functional
[9] = Efflux ratio of MITC95 for antibacterial activity against wildtype isogenic efflux/IMP-1 expressing Pseudomonas aeruginosa MB9798 assessed as inhibition of bacterial growth in presence of IMI to MITC95 for antibacterial activity against mutant isogenic efflux/IMP-1 expressing Pseudomonas aeruginosa MB9799 assessed as inhibition of bacterial growth in presence of IMI; type: functional
[10] = molecular target: Metallo-beta-lactamase type 2 (Bacteria, UniProt C7C422); assay: Inhibition of Metallo-beta-lactamase NDM-1 (unknown origin)
Sequence of Metallo-beta-lactamase type 2 (C7C422 whole entry): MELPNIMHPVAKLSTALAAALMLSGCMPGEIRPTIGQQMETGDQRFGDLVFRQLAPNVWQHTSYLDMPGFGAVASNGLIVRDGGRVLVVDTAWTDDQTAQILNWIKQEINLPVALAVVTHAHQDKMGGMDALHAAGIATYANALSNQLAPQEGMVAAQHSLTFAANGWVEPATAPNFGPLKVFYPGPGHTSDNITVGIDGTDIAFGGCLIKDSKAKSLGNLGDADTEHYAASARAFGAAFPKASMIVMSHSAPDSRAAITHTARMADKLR

[11] = Volume of distribution at steady state in rat at 1 mg/kg, iv; type: ADME, organism-based; details: in vivo, read-out: Vdss
[12] = AUC in rat at 1 mg/kg, iv; type: ADME, organism-based; details: in vivo
[13] = Clearance in rat at 1 mg/kg, iv; type: ADME, organism-based; details: in vivo
[14] = Cmax in rat at 1 mg/kg, iv; type: ADME, organism-based; details: in vivo
[15] = MRT in rat at 1 mg/kg, iv; type: ADME, organism-based; details: in vivo
[16] = Unbound fraction in rat plasma at 1 mg/kg, iv; type: ADME, organism-based
[17] = AUC in rhesus monkey at 1 mg/kg, iv; type: ADME, organism-based, Macaca mulatta; details: in vivo
[18] = Clearance in rhesus monkey at 1 mg/kg, iv; type: ADME, organism-based, Macaca mulatta; details: in vivo
[19] = Volume of distribution at steady state in rhesus monkey at 1 mg/kg, iv; type: ADME, organism-based, Macaca mulatta; details: in vivo, read-out: Vdss
[20] = Cmax in rhesus monkey at 1 mg/kg, iv; type: ADME, organism-based, Macaca mulatta; details: in vivo
[21] = MRT in rhesus monkey at 1 mg/kg, iv; type: ADME, organism-based, Macaca mulatta; details: in vivo
[22] = Unbound fraction in rhesus monkey plasma at 1 mg/kg, iv; type: ADME, organism-based, Macaca mulatta
[23] = Cmax in rat at 100 mg/kg, iv; type: ADME, organism-based; details: in vivo
[24] = Toxicity in cardiovascular rat model assessed as increase in histamine release in plasma at 100 mg/kg, iv; type: organism-based; details: in vivo
[25] = Toxicity in rat mast cells assessed as degranulation by measuring histamine release at 900 microM; type: cell-based; details: mast cell
[26] = Toxicity in cardiovascular rat model assessed as decrease in blood pressure at 30 mg/kg,iv for 20 mins and measured after 20 mins of iv infusion with 100 mg/kg; type: organism-based; details: in vivo, 40 min
[27] = Toxicity in cardiovascular rat model assessed as increase in histamine release in plasma at 30 mg/kg,iv for 20 mins and measured after 20 mins of iv infusion with 100 mg/kg; type: organism-based; details: in vivo, 40 min
[28] = Toxicity in rhesus monkey assessed as adverse effects at 1 mg/kg, iv measured after 24 hrs; type: organism-based, Macaca mulatta; details: in vivo
[29] = Cmax in rhesus monkey at 1 mg/kg, iv measured after 24 hrs; type: ADME, organism-based, Macaca mulatta; details: in vivo
[30] = system: Staphylococcus aureus; assay: Antibacterial activity against wild type Staphylococcus aureus; type: functional, organism-based
[31] = system: Escherichia coli; assay: Antibacterial activity against efflux mutant Escherichia coli; type: functional, organism-based
[32] = Hemolytic activity in sheep red blood cells assessed as hemolysis; type: toxicity, cell-based, Ovis aries, Erythrocyte
[33] = Cmax in rat at 30 mg/kg, iv; type: ADME, organism-based; details: in vivo
[34] = Toxicity in cardiovascular rat model assessed as increase in histamine release in plasma at 30 mg/kg, iv; type: organism-based; details: in vivo
[35] = Toxicity in rat assessed as emesis at 1 mg/kg, iv; type: organism-based; details: in vivo
[36] = Toxicity in rat assessed as watery eyes at 1 mg/kg, iv; type: organism-based; details: in vivo
[37] = Toxicity in rat assessed as anaphylaxis at 1 mg/kg, iv; type: organism-based; details: in vivo
[38] = Toxicity in dog assessed as emesis at 1 mg/kg; type: organism-based, Canis lupus familiaris; details: in vivo
[39] = Toxicity in dog assessed as watery eyes at 1 mg/kg; type: organism-based, Canis lupus familiaris; details: in vivo
[40] = Toxicity in dog assessed as anaphylaxis at 1 mg/kg; type: organism-based, Canis lupus familiaris; details: in vivo
[41] = Toxicity in rat mast cells assessed as degranulation by measuring histamine release at >=300 microM; type: cell-based; details: mast cell
[42] = Toxicity in cardiovascular rat model assessed as decrease in blood pressure at 3 mg/kg,iv for 20 mins followed by 10 mg/kg, iv dose for next 20 mins and measured after 20 mins of iv dose with 30 mg/kg; type: organism-based; details: in vivo, 1 h, time 60 min
[43] = Toxicity in cardiovascular rat model assessed as increase in histamine release in plasma at 3 mg/kg,iv for 20 mins followed by 10 mg/kg, iv dose for next 20 mins and measured after 20 mins of iv dose with 30 mg/kg; type: organism-based; details: in vivo, 1 h, time 60 min
[44] = Cmax in rat at 5 mg/kg, iv; type: ADME, organism-based; details: in vivo
[45] = Toxicity in cardiovascular rat model assessed as increase in histamine release in plasma at 5 mg/kg, iv measured after >8 mins; type: organism-based; details: in vivo
[46] = Toxicity in rat mast cells assessed as degranulation by measuring histamine release at >=33 microM; type: cell-based; details: mast cell

SMILES: CS(=O)(=O)c1ccc(-c2ccc(C3CCNCC3)cc2)c(-c2nnn[nH]2)c1S(N)(=O)=O
pIC50 [1]: 10.00
pIC50 [2]: 9.89
pIC50 [3]: 8.59
MITC95 [4]: 3.13 µM
MITC95 [5]: 3.13 µM
MITC95 [6]: 3.13 µM
MITC95 [7]: 6.25 µM
MITC95 [8]: 0.78 µM
Ratio [9]: 8

SMILES: NS(=O)(=O)c1c([S+]([O-])C2CCNCC2)ccc(-c2ccc(C3CCNCC3)cc2)c1-c1nnn[nH]1 (stereo not drawn)
pIC50 [1]: 8.23
pIC50 [2]: 8.93
pIC50 [3]: 5.96
MITC95 [4]: 3.13 µM
MITC95 [5]: 6.25 µM
MITC95 [6]: 6.25 µM
MITC95 [7]: 3.1 µM
MITC95 [8]: 1.56 µM
Ratio [9]: 2

SMILES: NS(=O)(=O)c1c(C(F)(F)F)ccc(-c2ccc(C3CCNCC3)cc2)c1-c1nn[nH]n1
pIC50 [10]: 9.05
pIC50 [1]: 8.92
pIC50 [2]: 9.52
MITC95 [4]: 0.7 µM
MITC95 [5]: 0.2 µM
MITC95 [6]: 1.9 µM
MITC95 [7]: 50 µM
MITC95 [8]: 0.78 µM
Ratio [9]: 64

SMILES: NCCS(=O)(=O)c1ccc(-c2cccc3sc(N)nc23)c(-c2nn[nH]n2)c1S(N)(=O)=O
Vd [11]: 0.46 L/kg
AUC [12]: 1.15 µM·h
clearance [13]: 32.1 mL/min/kg
Cmax [14]: 5.8 µM
MRT [15]: 0.23 h
fraction unbound [16]: 0.37
AUC [17]: 10.2 µM·h
clearance [18]: 3.6 mL/min/kg
Vd [19]: 0.39 L/kg
Cmax [20]: 18 µM
MRT [21]: 1.81 h
fraction unbound [22]: 0.23
pIC50 [1]: 9.64
pIC50 [2]: 9.51
pIC50 [3]: 9.00
MITC95 [4]: 0.78 µM
MITC95 [5]: 1.56 µM
MITC95 [6]: 3.13 µM
MITC95 [7]: 0.78 µM
Ratio [9]: ~1
Cmax [23]: 569 µM
Activity [24]: Non-toxic
Activity [25]: Non-toxic
Activity [26]: Toxic
Activity [27]: Non-toxic
Activity [28]: Non-toxic
Cmax [29]: 18 µM
pIC50 [30]: < 3.70
pIC50 [31]: < 3.70
pIC50 [32]: < 3.70

SMILES: NCCS(=O)(=O)c1ccc(-c2ccc(C3CCNCC3)cc2)c(-c2nn[nH]n2)c1S(N)(=O)=O
pIC50 [1]: 9.77
pIC50 [2]: 9.70
MITC95 [4]: 1.56 µM
MITC95 [5]: 1.56 µM
MITC95 [6]: 3.13 µM
MITC95 [8]: 0.78 µM
Ratio [9]: 2

SMILES: NS(=O)(=O)c1c(CC2CCNCC2)ccc(-c2ccc(C3CCNCC3)cc2)c1-c1nn[nH]n1
pIC50 [10]: 7.96
pIC50 [1]: 7.62
pIC50 [2]: 8.30
pIC50 [3]: 5.91
MITC95 [4]: 2 µM
MITC95 [5]: 3.9 µM
MITC95 [6]: 2.3 µM
MITC95 [7]: 4.4 µM
MITC95 [8]: 0.8 µM
Ratio [9]: 6
Cmax [33]: 459 µM
Activity [34]: Toxic
Activity [35]: Toxic
Activity [36]: Toxic
Activity [37]: Toxic
Activity [38]: Toxic
Activity [39]: Toxic
Activity [40]: Toxic
Activity [41]: Toxic
Activity [42]: Toxic
Activity [43]: Toxic

Cmax [44]: 45 µM
SMILES: NS(=O)(=O)c1c(CC2CNC2)ccc(-c2ccc(C3CCNCC3)cc2)c1-c1nn[nH]n1
Activity [45]: Toxic
Activity [46]: Toxic
